From patent US7468462B2, “Therapeutic agents for the treatment of cancer, metabolic diseases and skin disorders” (Auspex Pharmaceuticals, priority 2004, dated 2008)

Target: T1, RAR-α (Homo sapiens, UniProt P10276)
T1 construct: The Plasmid pGEG-hRAR-α for full-length RAR-α expression; made in house; host or cells: E. coli BL21 (DE3)
T1 sequence (P10276 1-462): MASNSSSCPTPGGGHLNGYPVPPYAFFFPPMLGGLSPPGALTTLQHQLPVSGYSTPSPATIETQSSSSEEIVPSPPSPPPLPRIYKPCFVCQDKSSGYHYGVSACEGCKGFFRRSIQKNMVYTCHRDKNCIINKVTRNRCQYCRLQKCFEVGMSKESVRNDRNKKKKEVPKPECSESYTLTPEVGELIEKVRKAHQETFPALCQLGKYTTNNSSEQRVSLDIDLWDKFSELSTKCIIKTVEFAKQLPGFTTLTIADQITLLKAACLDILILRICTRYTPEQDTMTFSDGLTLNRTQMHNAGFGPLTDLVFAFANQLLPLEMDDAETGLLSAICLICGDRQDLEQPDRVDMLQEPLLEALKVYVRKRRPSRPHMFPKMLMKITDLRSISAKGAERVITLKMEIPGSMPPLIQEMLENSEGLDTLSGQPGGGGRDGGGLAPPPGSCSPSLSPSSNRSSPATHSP
Test: Competitive radioligand (tritium labeled tRA) hydroxylapatite binding assay in E. coli expressed RAR-α
Details: read-out: Kd (mircomolar)
Method: After correcting for non-specific binding, IC50 values were determined.

Kd [µM] | Structure (SMILES)
0.3 | COc1ccc(-c2ccc3cc(C(=O)O)ccc3c2)cc1C12CC3CC(CC(C3)C1)C2 [Adapalene]
16 | COc1ccc(-c2ccc3cc(C4=C(O)CCC4=O)ccc3c2)cc1C12CC3CC(CC(C3)C1)C2 [Example 8, 2-[6-(3-Adamantan-1-yl-4-methoxyphenyl)-naphthalen-2-yl]-3-hydroxy-cyclopent-2-enone]
